Source: ChEMBL document CHEMBL1201862, “PubChem BioAssay data set” (2004)
Active and inactive are the calls of the source.

What was measured:
[1] = molecular target: T1, Corticotropin-releasing factor receptor 2/Corticotropin-releasing factor-binding protein (Homo sapiens, UniProt P24387+Q13324); assay: activators of CRF receptor 2 with binding protein – uHTS hits, confirmation (AID 602473); assay type: functional; conditions: read-out: EC50_Mean
T1 sequence (Q13324 whole entry): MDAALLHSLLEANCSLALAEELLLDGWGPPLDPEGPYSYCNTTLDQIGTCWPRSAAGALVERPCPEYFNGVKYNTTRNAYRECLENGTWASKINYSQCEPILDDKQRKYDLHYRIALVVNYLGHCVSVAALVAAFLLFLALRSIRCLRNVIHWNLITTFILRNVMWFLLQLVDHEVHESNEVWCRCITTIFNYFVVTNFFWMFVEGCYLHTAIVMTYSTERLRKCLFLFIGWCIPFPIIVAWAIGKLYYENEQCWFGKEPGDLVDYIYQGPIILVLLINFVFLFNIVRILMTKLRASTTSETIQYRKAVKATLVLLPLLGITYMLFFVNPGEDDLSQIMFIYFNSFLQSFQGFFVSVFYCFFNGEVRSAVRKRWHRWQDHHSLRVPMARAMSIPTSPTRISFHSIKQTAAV
T1 sequence (P24387 whole entry): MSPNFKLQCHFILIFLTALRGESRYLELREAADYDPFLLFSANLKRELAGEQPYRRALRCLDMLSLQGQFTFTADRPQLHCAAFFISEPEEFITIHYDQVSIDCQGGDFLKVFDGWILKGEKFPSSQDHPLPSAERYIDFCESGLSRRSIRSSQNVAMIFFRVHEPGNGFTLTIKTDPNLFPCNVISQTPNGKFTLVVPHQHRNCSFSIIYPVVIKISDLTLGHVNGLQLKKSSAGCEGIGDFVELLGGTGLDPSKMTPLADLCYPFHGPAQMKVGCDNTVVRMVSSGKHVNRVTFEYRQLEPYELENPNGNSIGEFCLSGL

[2] = molecular target: T1, Corticotropin-releasing factor receptor 2/Corticotropin-releasing factor-binding protein; assay: Dose Response confirmation of uHTS hits for small molecule antagonists of the CRF-binding protein and CRF-R2 receptor complex.; assay type: functional; conditions: read-out: IC50_Mean
[3] = blockers of CRF-binding protein–CRF-R2 complex – cell-based, uHTS hits, 384-well, dose response (AID 651639); assay type: functional, Homo sapiens; conditions: read-out: IC50_Mean
[4] = molecular target: T2, Voltage-gated N-type calcium channel alpha-1B subunit/Amyloid beta A4 precursor protein-binding family A member 1 (Homo sapiens, UniProt Q00975+Q02410); assay type: protein assay
T2 sequence (Q00975 whole entry, the tested form may be a part): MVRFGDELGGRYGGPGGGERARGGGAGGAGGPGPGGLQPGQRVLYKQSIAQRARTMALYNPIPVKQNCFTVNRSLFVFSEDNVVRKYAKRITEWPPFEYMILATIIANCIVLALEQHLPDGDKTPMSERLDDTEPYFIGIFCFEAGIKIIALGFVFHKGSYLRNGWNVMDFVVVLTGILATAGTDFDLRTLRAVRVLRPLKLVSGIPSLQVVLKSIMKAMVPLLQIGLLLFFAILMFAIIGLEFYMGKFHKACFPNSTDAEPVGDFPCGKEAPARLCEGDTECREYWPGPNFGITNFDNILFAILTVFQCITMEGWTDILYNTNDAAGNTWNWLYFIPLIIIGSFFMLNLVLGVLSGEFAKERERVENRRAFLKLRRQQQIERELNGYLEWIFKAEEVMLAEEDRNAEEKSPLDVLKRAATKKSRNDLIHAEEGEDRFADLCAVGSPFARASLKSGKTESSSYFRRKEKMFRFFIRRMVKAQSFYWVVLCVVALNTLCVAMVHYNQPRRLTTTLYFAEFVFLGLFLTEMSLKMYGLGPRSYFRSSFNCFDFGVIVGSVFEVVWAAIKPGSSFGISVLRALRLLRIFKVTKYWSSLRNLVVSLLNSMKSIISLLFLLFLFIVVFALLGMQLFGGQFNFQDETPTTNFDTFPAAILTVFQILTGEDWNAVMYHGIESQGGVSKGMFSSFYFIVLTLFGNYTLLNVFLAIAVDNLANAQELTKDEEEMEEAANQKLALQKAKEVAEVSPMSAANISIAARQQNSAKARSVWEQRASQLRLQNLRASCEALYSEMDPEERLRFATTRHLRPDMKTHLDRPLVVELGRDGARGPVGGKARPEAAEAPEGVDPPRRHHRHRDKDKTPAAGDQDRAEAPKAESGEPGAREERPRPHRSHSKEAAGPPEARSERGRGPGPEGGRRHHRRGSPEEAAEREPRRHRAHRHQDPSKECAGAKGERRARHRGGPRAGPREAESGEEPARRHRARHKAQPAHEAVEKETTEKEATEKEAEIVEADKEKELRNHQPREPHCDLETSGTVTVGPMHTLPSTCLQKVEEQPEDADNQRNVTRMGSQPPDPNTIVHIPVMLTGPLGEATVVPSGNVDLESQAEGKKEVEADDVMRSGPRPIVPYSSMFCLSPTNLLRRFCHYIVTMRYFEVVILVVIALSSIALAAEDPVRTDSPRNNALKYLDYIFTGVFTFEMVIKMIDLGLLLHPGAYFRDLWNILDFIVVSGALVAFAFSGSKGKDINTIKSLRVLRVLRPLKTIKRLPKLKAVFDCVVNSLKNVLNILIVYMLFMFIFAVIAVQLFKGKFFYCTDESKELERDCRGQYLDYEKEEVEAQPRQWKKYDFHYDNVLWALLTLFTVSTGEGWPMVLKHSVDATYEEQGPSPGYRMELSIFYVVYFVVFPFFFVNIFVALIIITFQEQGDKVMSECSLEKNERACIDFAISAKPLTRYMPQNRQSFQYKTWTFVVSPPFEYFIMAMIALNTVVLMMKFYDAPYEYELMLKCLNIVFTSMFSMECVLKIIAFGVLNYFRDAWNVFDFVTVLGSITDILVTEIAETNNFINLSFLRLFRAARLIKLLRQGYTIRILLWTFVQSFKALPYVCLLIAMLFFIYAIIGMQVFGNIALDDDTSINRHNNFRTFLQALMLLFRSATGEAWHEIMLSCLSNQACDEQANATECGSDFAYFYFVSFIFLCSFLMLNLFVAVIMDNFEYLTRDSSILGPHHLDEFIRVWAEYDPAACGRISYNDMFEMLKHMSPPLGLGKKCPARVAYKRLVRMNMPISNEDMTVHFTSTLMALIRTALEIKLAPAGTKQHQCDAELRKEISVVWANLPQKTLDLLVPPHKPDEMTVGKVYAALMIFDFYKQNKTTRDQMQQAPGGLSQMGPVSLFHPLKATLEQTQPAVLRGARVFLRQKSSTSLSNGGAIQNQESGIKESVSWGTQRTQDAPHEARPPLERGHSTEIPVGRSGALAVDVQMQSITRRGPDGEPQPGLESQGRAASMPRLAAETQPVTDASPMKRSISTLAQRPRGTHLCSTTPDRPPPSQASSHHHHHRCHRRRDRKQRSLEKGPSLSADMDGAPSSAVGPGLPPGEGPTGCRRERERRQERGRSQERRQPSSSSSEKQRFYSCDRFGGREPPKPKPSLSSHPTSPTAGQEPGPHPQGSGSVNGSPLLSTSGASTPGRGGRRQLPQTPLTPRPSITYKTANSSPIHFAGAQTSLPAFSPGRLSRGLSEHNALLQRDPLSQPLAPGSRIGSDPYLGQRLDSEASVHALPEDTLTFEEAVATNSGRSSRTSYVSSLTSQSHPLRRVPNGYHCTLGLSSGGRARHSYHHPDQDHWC
T2 sequence (Q02410 whole entry, the tested form may be a part): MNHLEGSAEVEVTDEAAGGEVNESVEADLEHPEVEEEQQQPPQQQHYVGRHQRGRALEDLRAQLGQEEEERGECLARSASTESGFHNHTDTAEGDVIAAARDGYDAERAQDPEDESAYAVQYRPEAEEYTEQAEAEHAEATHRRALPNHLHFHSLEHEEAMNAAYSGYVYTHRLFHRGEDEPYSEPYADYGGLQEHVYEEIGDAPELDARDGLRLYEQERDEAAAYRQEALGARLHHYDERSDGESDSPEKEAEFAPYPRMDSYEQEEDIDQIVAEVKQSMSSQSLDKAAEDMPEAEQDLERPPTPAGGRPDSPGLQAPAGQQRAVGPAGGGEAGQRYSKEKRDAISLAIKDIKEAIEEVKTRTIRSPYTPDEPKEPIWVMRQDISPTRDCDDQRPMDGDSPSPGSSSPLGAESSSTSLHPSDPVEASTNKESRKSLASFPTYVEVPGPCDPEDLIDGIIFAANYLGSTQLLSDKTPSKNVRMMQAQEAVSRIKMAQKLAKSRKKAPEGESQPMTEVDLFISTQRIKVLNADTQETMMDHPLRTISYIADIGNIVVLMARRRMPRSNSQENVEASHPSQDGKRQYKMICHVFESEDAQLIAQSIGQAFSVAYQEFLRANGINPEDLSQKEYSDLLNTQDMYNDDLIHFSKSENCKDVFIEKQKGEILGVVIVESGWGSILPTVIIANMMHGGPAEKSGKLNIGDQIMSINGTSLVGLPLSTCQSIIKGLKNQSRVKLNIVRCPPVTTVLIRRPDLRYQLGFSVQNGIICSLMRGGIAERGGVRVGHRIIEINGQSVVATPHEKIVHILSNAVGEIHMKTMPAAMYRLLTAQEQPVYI

[5] = molecular target: T3, Carboxy-terminal domain RNA polymerase II polypeptide A small phosphatase 1 (Homo sapiens, UniProt Q9GZU7); assay: CTDSP1 inhibitors, concentration-response, biochemical, absorbance readout, ultra-high-throughput screen actives (AID 540297); assay type: functional
T3 sequence (Q9GZU7 whole entry): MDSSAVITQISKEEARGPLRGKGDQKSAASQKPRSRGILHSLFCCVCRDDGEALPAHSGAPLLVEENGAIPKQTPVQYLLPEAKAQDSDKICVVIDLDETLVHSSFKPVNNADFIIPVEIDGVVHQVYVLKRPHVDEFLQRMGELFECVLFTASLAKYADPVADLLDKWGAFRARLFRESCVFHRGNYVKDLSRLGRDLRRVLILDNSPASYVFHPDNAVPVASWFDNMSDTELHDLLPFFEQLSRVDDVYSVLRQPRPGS

[6] = molecular target: DNA (cytosine-5)-methyltransferase 1 (Homo sapiens, UniProt P26358); assay: inhibition of DNA methylation by DNMT1 – biochemical, fluorescent molecular beacon, confirmation (AID 602386); assay type: functional
[7] = molecular target: T2, Voltage-gated N-type calcium channel alpha-1B subunit/Amyloid beta A4 precursor protein-binding family A member 1; assay type: protein assay; remark: listed apart in the source
ORF 73 = molecular target: T4, ORF 73 (Human herpesvirus 8, UniProt O40947); assay: KSHV LANA DNA-binding disruption – biochemical, fluorescence polarization, cherry-picked samples, dose response (AID 504725); design: species or system Human gammaherpesvirus 8;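 further: fluorescence polarization of a labeled DNA duplex reporting LANA DNA binding; potency is for inhibitors that block LANA binding to the DNA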
T4 sequence (O40947 whole entry): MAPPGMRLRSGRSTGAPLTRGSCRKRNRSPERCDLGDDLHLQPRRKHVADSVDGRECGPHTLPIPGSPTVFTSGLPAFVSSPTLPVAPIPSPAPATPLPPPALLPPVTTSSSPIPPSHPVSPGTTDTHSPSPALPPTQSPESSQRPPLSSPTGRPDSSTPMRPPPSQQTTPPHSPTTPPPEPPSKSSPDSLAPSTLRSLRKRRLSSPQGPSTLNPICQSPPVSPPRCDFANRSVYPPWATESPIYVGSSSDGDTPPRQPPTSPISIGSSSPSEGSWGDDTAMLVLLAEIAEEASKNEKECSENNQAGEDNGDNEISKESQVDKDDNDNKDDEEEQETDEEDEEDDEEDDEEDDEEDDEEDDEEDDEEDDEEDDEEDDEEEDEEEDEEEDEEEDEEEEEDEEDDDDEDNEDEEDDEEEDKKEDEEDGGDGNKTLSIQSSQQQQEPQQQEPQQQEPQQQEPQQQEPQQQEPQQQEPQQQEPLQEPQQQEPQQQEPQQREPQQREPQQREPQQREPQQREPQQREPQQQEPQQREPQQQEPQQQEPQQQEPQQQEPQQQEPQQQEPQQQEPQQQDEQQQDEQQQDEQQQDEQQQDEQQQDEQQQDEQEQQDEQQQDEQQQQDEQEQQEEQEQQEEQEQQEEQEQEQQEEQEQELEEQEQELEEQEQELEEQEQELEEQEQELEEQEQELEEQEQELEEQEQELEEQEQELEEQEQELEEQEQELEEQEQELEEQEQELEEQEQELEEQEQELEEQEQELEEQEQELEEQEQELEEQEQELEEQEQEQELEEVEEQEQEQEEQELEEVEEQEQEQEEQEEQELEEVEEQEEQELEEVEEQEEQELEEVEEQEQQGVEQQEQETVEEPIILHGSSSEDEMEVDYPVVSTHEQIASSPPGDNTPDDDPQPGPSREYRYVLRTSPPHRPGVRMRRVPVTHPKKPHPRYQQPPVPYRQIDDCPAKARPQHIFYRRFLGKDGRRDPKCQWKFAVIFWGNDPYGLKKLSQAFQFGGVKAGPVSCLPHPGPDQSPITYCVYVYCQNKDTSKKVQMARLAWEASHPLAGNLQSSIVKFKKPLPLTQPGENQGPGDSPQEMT

[8] = molecular target: T5, ATP-dependent translocase ABCB1 (Homo sapiens, UniProt P08183); assay: inhibition of BCRP-mediated JC-1 efflux – Ig-MXP3 cells, flow cytometry, set 2, dose response (AID 504566); assay type: functional; conditions: read-out: EC50_MICROM_;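 further: flow cytometry median green fluorescence of retained JC-1 dye; potency of efflux pump inhibition measured as rising substrate retention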
T5 sequence (P08183 whole entry): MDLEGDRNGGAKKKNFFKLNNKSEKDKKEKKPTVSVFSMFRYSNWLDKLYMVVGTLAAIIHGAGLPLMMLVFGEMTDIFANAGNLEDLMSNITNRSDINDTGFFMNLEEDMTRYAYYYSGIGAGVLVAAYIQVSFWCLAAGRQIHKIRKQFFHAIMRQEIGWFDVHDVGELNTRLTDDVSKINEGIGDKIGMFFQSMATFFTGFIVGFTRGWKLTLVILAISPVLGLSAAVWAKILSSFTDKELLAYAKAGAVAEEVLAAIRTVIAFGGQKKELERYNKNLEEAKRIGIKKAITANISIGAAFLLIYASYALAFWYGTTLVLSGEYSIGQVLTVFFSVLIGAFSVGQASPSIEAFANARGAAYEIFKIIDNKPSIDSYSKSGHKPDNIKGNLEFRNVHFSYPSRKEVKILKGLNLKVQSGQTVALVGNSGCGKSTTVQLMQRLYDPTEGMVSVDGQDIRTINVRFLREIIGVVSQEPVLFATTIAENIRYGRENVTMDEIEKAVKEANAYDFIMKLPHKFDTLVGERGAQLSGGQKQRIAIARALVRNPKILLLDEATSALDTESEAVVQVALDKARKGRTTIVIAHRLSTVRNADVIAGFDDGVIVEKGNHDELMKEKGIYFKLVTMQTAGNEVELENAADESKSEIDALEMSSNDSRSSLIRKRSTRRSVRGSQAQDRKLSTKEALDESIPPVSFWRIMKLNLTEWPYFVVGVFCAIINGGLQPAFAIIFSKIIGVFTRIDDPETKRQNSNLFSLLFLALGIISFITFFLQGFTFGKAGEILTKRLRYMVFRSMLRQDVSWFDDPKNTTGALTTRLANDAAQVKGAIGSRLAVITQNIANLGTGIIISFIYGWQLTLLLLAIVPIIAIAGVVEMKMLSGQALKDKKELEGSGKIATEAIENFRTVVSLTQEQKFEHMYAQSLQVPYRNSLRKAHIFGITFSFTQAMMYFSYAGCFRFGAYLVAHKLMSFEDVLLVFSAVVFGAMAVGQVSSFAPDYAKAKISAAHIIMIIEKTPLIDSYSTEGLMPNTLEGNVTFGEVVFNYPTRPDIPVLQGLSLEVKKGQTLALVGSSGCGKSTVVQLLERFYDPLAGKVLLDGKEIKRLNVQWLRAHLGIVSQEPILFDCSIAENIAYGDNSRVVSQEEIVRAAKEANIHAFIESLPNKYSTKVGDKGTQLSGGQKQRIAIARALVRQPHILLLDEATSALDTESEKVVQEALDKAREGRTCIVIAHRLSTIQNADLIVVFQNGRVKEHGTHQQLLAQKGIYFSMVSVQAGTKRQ

[9] = molecular target: T5, ATP-dependent translocase ABCB1; assay: P-gp JC-1 efflux blockade concentration-response – Jurkat-DNR cells, flow cytometry, set 2, dose response (AID 504569); assay type: functional; conditions: read-out: EC50_MICROM_;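 further: potency of pump inhibitors that raise cellular JC-1 green fluorescence up to the nicardipine level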
Melanocortin receptor 4 = Melanocortin receptor 4 (Homo sapiens, UniProt P32245); assay type: functional, cell-based;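 further: Cell-based assay with luminescence read-out, confirmatory dose-response testing for agonist activity of biased ligands at MC4R; human U2OS cells with tagged receptor and beta-arrestin; potency of agonists that increase receptor coupling to beta-arrestin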
Orexin receptor type 2 [10] = molecular target: T6, Orexin receptor type 2 (Homo sapiens, UniProt O43614); assay: Counterscreen assay for antagonists of the orexin 1 receptor (OX1R; HCRTR1): Fluorescence-based cell-based dose response assay for antagonists of the orexin 2 receptor (OX2R; HCRTR2), run by assay provider.; assay type: functional
T6 sequence (O43614 whole entry): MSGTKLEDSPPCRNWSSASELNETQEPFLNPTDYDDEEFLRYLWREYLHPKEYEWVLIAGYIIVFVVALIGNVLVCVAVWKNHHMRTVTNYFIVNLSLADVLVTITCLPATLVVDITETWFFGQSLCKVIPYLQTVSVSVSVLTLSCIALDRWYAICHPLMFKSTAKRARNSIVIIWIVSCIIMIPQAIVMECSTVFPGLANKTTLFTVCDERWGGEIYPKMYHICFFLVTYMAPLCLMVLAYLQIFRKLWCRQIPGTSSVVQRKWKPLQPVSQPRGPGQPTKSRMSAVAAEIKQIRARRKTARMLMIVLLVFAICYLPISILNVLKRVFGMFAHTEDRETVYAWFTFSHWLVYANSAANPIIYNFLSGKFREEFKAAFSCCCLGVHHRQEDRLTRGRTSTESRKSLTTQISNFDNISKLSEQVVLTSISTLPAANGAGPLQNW

[11] = molecular target: T7, Polyadenylate-binding protein 1 (Homo sapiens, UniProt P11940); assay: MLLE domain peptide-binding blockers, IC50 – biochemical, fluorescence polarization, FITC-PAM2 peptide, dose response (AID 602259); assay type: functional; conditions: read-out: IC50_Mean
T7 sequence (P11940 whole entry, the tested form may be a part): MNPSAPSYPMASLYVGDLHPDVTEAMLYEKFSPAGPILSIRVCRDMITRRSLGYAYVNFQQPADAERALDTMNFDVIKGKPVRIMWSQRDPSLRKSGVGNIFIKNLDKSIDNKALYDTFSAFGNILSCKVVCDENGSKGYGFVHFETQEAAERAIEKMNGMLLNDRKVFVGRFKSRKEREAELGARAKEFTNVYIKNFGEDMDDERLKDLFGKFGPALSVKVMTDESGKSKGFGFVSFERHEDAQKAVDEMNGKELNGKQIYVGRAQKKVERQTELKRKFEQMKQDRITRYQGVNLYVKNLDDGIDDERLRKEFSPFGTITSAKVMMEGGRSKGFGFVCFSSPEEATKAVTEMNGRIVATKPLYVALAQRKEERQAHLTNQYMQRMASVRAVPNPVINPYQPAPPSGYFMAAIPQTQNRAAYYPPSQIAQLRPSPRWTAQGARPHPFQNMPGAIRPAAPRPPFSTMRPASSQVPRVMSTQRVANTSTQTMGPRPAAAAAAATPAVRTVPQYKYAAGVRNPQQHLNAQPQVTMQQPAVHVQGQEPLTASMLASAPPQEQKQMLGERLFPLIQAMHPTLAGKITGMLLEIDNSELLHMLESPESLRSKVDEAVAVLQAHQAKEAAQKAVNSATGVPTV

[12] = (§1) Counterscreen for antagonists of the orexin 1 receptor (OX1R; HCRTR1): Fluorescence-based cell-based high throughput dose response assay to identify antagonists of the parental CHO cell line. [Related pubchem assays (depositor defined):AID434989, AID435008, AID463079, AID485270, AID492963, AID492964, AID492965, AID493232, AID504699, AID504701]; assay type: functional
[13] = molecular target: T8, Orexin/Hypocretin receptor type 1 (Homo sapiens, UniProt O43613); assay: Homogeneous Time Resolved Fluorescence (HTRF)-based cell-based high throughput dose response assay for antagonists of the orexin 1 receptor (OX1R; HCRTR1). [Related pubchem assays (depositor defined):AID434989, AID435008, AID463079, AID485270, AID492963, AID492964, AID492965, AID493232, AID504717, AID504718]; assay type: functional
T8 sequence (O43613 whole entry): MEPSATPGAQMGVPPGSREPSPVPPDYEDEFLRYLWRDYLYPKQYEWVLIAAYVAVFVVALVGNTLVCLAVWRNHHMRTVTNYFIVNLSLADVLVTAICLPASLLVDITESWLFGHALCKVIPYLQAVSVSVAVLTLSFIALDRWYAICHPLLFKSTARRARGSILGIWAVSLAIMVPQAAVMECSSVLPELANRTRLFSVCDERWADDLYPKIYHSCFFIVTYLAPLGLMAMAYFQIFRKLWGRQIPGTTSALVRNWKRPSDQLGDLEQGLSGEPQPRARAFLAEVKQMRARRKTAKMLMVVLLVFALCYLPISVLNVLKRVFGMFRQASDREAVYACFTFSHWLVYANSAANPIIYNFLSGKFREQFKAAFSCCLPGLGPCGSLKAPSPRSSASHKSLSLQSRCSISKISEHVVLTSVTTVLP

CHO-K1 = assay: as §1, with “Homogeneous time resolved fluorescence (HTRF)-based” for “Fluorescence-based”, “cell-based” for “cell-based high throughput”, “CHO-K1” for “CHO”; assay type: functional; conditions: Cricetulus griseus;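 further: potency for inhibition of ATP-stimulated IP1 production as antagonists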
[14] = molecular target: T8, Orexin/Hypocretin receptor type 1; assay: Fluorescence-based cell-based high throughput dose response assay for antagonists of the orexin 1 receptor (OX1R; HCRTR1). [Related pubchem assays (depositor defined):AID434989, AID435008, AID463079, AID485270, AID492963, AID492964, AID492965, AID493232, AID504717, AID504718]; assay type: functional
Orexin receptor type 2 [15] = molecular target: T6, Orexin receptor type 2; assay: Counterscreen assay for antagonists of the orexin 1 receptor (OX1R; HCRTR1): Homogeneous Time Resolved Fluorescence (HTRF)-based cell-based dose response assay for antagonists of the orexin 2 receptor (OX2R; HCRTR2), run by assay provider.; assay type: functional
[16] = molecular target: T7, Polyadenylate-binding protein 1; assay: MLLE binding blockers, Cy5 peptide tracer – biochemical, fluorescence polarization, Cy5-PAM2 peptide, secondary, miRNA deadenylation inhibitor project, dose response (AID 602260); assay type: functional; conditions: read-out: IC50_Mean
[17] = molecular target: Macrophage-stimulating protein receptor (Homo sapiens, UniProt Q04912); assay: Navigating the Kinome. Panel member name: MST1R; assay type: functional
LIM domain kinase 1 = LIM domain kinase 1 (Homo sapiens, UniProt P53667); assay: Navigating the Kinome. Panel member name: LIMK1; assay type: functional
[18] = molecular target: Dual specificity tyrosine-phosphorylation-regulated kinase 1B (Homo sapiens, UniProt Q9Y463); assay: Navigating the Kinome. Panel member name: DYRK1B; assay type: functional
[19] = molecular target: ALK tyrosine kinase receptor (Homo sapiens, UniProt Q9UM73); assay type: functional;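 further: ALK tested as one member of a kinase panel screen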

CCCCNC(=O)CCn1c(=O)c2ccccc2n(Cc2ccccc2C)c1=O
EC50 [1]: > 53 µM (inactive) | IC50 [2]: 2.98 µM (active) | IC50 [3]: 19.8 µM (active)

C=C(C)C(=O)Nc1cccc(C2=NOC3(C2)C[C@@H](C(N)=O)N(C(=O)C2(C)CC2)C3)c1 (some centres undefined)
IC50 [4]: > 50 µM (inactive) | IC50 [5]: 0.408 µM (active) | IC50 [6]: 1.45 µM (active) | IC50 [7]: 1.84 µM (active) | AC50 (ORF 73): 17.9 µM (active)

O=C(c1ccoc1)N1CCCN(c2cc(-c3ccccc3)nc3cc(-c4cccc(Cl)c4)nn23)CC1
EC50 [8]: 1.98 µM (active) | EC50 [9]: 6 µM (active)

O=C(NC(c1ccccc1)c1ccsc1)C1CCN(CCOc2ccc(Cl)cc2Cl)CC1 (centres undefined)
EC50 (Melanocortin receptor 4): > 89.2 µM (inactive)

O=C(NC(=S)Nc1cccc2cccnc12)c1cccs1
IC50 (Orexin receptor type 2 [10]): > 88.8 µM (inactive) | IC50 [11]: > 66 µM (inactive) | IC50 [12]: > 49.7 µM (inactive) | IC50 [13]: > 0.00331 µM (active) | IC50 (CHO-K1): > 66.2 µM (inactive) | IC50 [14]: > 5.52 µM (active) | IC50 (Orexin receptor type 2 [15]): > 50 µM (inactive) | IC50 [16]: > 66 µM (inactive)

Cc1ccc(N(C)S(=O)(=O)c2cccc(C(=O)NCC(c3cccs3)N3CCOCC3)c2)cc1 (centres undefined)
IC50 (Orexin receptor type 2 [10]): > 88.8 µM (inactive) | IC50 [12]: > 49.8 µM (inactive) | IC50 [13]: 0.715 µM (active) | IC50 (CHO-K1): > 66.2 µM (inactive) | IC50 [14]: 12 µM (inactive) | IC50 (Orexin receptor type 2 [15]): 3.35 µM (active)

Nc1ccc2cc(NCCc3ccccc3)cc(Nc3ncccn3)c2n1
Ki [17]: 3.16 µM (active) | Ki (LIM domain kinase 1): 0.631 µM (active) | Ki [18]: 2 µM (active) | Ki [19]: 1.58 µM (active)
